Consider 2 compounds from patent US9228209B2, “Method for producing triptolide” (priority 2009, dated 2016).

Experiment [1] has as its system transcription factor NFκB. The experiment in a line: Test of NFκB inhibition (TNFα stimulation in HaCaT keratinocyte cells). In kind it is cell-based, human. From the text: Transcription factor NFκB controls the expression of a large number of genes involved in inflammatory response regulation. Certain proinflammatory stimuli, such as tumor necrosis factor-α (TNFα), lead to NFκB activation, i.e., to its nuclear translocation. Consequently, NFκB will induce the transcription of proinflammatory genes coding for cytokines, chemokines, adhesion molecules, growth factors and inducible enzymes such as cyclooxygenase-2 (COX-2) and nitric oxide synthase (iNOS). NFκB plays a key role in the initiation and amplification of the inflammatory response. Certain chronic inflammatory diseases of the skin, such as atopic dermatitis or psoriasis, are characterized by deregulation of the expression of inflammation mediators expressed by keratinocytes. The anti-inflammatory activity of pure triptolide (TRP) in relation to that of plant cell culture extracts (IBO.18.134) with equivalent amounts of TRP is evaluated.
FIG. 6 represents the inhibition of various extracts on NFκB activation following TNFα stimulation in HaCaT keratinocyte cells. As a positive control, dexamethasone (2 μM), which inhibits NFκB activation by 36%, was used.

The test system of experiment [2] is RAW264.7 cells. Put plainly: NO2− production by RAW264.7 cells stimulated with LPS (Griess reagent). In kind it is cell-based, murine. As to conditions: identical TRP concentrations; 1 μg/ml LPS, 24 hours. The method, then: To this end, the test selected was NO2^− production by RAW264.7 cells stimulated with lipopolysaccharides (LPS).
Briefly, RAW264.7 cells (murine macrophages) were seeded at 1.4·10^5 cells/cm^2. After 24 hours, the cells were incubated for 1 hour with various concentrations of the products to be tested and then stimulated for 24 hours with 1 μg/ml of LPS. NO2 concentration was estimated in the culture supernatants using the Griess reagent.
The results (FIG. 7) illustrate NO2^− production obtained under the various conditions specified above. The percent inhibition calculated in relation to the LPS control appears in each histogram. Lastly, IC50 was calculated from these values (in bold blue).
(In general: The Griess reaction detects nitrite, a stable product of nitric oxide.)

A word on the inhibition: it is the percentage by which the read-out fell short of the control. With `C[C@@H]1C[C@H]2[C@@H]3CCC4=CC(=O)C=C[C@]4(C)[C@@]3(F)[C@@H](O)C[C@]2(C)[C@@]1(O)C(=O)CO` [dexamethasone], the inhibition at 2 µM in experiment [1] (Homo sapiens, HaCaT, read-out: inhibition of NFκB activation) turned out to be 36%.
For the compound `CC(C)[C@]12O[C@H]1[C@@H]1O[C@]13[C@]1(O[C@H]1C[C@H]1C4=C(CC[C@@]13C)C(=O)OC4)[C@@H]2O` [triptolide, Triptolide], the “inhibition of NFκB activation” value in experiment [1] (from 8 nM to 83 nM, TNFα stimulation, HaCaT keratinocyte cells) is on record as “inhibits in a dose-dependent manner”. Moreover, the “NFκB inhibition, PCC extract compared with pure triptolide” value in experiment [1] (identical triptolide concentrations of 8 nM, 28 nM and 83 nM) was “equivalent”. Further, the “inhibition of nitrite production induced by LPS” value in experiment [2] is “inhibit nitrite production”.
